≈ marks a conversion by molar mass, not a printed value.
Columns and labels:
[1] = Solubility in water; type: physicochemical; settings: free base
Procedure: Prasugrel is administered orally as platelet aggregation inhibitor. The problem here is that Prasugrel is a sparingly soluble active ingredient.

[2] = pH-dependent degradation; type: physicochemical; settings: pH values of <3, after 2 hours
Procedure: In addition, Prasugrel also has a strongly pH-dependent degradation. With pH values of <3 a degradation of more than 1% is observed already after 2 hours. This limits the potential excipients in the preparation of pharmaceutical formulations.

SMILES: CC(=O)Oc1cc2c(s1)CCN(C(C(=O)C1CC1)c1ccccc1F)C2 (stereo not drawn) [Prasugrel, 2-acetoxy-5-(α-cyclopropylcarbonyl-2-fluorobenzyl)-4,5,6,7-tetrahydrothieno[3,2-c]pyridine]
- solubility [1]: 57 µg/mL (≈ 153 µM)
- degradation [2]: more than 1%

From US8940757B2, “Prasugrel in micronized, crystalline form and pharmaceutical composition thereof” (ratiopharm GmbH, priority 2010, dated 2015)
